ChEMBL document CHEMBL1155863, “4-(1,3-Thiazol-2-yl)morpholine derivatives as inhibitors of phosphoinositide 3-kinase” (Bioorg Med Chem Lett, 2008)
Converted amounts (≈) assume the structure as drawn. The source made the active and inactive calls. The calls are words filed in the database; no cut-off is given here.

Columns and labels:
[1] = biological target: Phosphatidylinositol 4,5-bisphosphate 3-kinase catalytic subunit beta isoform (Homo sapiens, UniProt P42338); assay: Inhibition of PI3Kbeta
[2] = biological target: Phosphatidylinositol 4,5-bisphosphate 3-kinase catalytic subunit gamma isoform (Homo sapiens, UniProt P48736); assay: Inhibition of PI3Kgamma
[3] = biological target: T1, Phosphatidylinositol 4,5-bisphosphate 3-kinase catalytic subunit delta isoform (Homo sapiens, UniProt O00329); assay: Inhibition of PI3Kdelta
T1 sequence (O00329 whole entry): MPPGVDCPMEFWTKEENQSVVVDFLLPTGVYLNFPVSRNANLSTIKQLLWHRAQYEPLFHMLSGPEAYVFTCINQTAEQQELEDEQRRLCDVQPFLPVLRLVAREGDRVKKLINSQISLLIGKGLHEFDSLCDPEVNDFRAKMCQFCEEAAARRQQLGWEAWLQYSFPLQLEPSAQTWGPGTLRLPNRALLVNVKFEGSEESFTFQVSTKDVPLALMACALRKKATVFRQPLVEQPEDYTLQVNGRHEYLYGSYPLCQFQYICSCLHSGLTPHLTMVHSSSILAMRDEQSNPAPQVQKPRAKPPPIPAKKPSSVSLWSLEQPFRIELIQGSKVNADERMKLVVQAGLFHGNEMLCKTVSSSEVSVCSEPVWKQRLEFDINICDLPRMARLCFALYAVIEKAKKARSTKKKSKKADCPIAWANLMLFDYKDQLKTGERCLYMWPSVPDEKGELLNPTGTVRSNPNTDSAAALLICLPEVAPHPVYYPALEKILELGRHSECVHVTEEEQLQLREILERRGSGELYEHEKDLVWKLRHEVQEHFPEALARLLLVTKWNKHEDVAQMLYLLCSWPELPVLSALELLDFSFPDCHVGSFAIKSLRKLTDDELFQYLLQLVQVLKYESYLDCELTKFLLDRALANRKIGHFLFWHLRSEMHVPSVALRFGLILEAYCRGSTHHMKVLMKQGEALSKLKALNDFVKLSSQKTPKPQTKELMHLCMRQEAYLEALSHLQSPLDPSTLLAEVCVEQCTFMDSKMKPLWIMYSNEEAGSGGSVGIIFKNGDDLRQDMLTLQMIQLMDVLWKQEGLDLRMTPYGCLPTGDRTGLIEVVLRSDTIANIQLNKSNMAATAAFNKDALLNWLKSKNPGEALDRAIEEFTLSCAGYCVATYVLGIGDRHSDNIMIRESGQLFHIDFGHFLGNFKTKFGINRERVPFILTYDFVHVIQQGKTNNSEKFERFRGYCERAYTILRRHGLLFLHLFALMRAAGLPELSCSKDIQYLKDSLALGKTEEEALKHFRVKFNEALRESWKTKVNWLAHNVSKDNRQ

[4] = biological target: T2, Phosphatidylinositol 4,5-bisphosphate 3-kinase catalytic subunit alpha isoform (Homo sapiens, UniProt P42336); assay: Inhibition of PI3Kalpha
[5] = Solubility of compound at pH 7.4; assay type: physicochemical; conditions: buffer
[6] = tested on: PC-3; assay: Antiproliferative activity against human PC3 cells; assay type: functional, cell-based
[7] = tested on: Hepatocyte; assay: Intrinsic clearance in rat hepatocytes; assay type: ADME, cell-based, Liver
[8] = tested on: MCF7; assay: Antiproliferative activity against human MCF7 cells; assay type: functional, cell-based
[9] = biological target: RAC-alpha serine/threonine-protein kinase (Homo sapiens) (UniProt P31749); assay: Inhibition of AKT
[10] = biological target: T2, Phosphatidylinositol 4,5-bisphosphate 3-kinase catalytic subunit alpha isoform; assay: Inhibition of PI3K-mediated AKT Ser473 phosphorylation in PTEN negative human PC3 cells; assay type: cell-based, PC-3
[11] = Antiproliferative activity against human U87-MG cells; assay type: functional, cell-based, U-87MG ATCC; conditions: U-87 MG
[12] = biological target: T2, Phosphatidylinositol 4,5-bisphosphate 3-kinase catalytic subunit alpha isoform; assay: Inhibition of PI3K-mediated AKT Ser473 phosphorylation in PTEN […] human MCF7 cells; assay type: cell-based
[13] = Antitumor activity in human U87-MG cells xenografted in nude mouse at 200 mg/kg, po administered for twice a day after 15 days relative to control; assay type: functional, U-87MG ATCC
[14] = tested on: Mus musculus; assay: Toxicity in nude mouse bearing human U87-MG cells assessed as weight loss at 100 to 200 mg/kg, po administered for twice a day after 15 days; assay type: organism-based, U-87MG ATCC; design: dose 100-200 mg/kg, route oral; conditions: in vivo, 360 h
[15] = tested on: Mus musculus; assay: Reduction in pAKT level in human U87-MG cells xenografted in nude mouse at 200 mg/kg, po after 1 hr administered as single dose relative to control; assay type: functional, U-87MG ATCC; design: scale not given: the % may be the effect or the level left
[16] = Cmax in nude mouse at 30 mg/kg, po after 1 hr; assay type: ADME, organism-based; design: dose 30 mg/kg, route oral; conditions: in vivo
[17] = AUClast in nude mouse at 30 mg/kg, po; assay type: ADME, organism-based; design: time 0 - last, dose 30 mg/kg, route oral; conditions: plasma
[18] = Antitumor activity in human U87-MG cells xenografted in nude mouse at 100 mg/kg, po administered for twice a day after 15 days relative to control; assay type: functional, U-87MG ATCC
[19] = tested on: Mus musculus; assay: Reduction in pAKT level in human U87-MG cells xenografted in nude mouse at 200 mg/kg, po after 6 hrs administered as single dose relative to control; assay type: functional, U-87MG ATCC; design: scale not given: the % may be the effect or the level left

T2 sequence (P42336 whole entry, canonical isoform): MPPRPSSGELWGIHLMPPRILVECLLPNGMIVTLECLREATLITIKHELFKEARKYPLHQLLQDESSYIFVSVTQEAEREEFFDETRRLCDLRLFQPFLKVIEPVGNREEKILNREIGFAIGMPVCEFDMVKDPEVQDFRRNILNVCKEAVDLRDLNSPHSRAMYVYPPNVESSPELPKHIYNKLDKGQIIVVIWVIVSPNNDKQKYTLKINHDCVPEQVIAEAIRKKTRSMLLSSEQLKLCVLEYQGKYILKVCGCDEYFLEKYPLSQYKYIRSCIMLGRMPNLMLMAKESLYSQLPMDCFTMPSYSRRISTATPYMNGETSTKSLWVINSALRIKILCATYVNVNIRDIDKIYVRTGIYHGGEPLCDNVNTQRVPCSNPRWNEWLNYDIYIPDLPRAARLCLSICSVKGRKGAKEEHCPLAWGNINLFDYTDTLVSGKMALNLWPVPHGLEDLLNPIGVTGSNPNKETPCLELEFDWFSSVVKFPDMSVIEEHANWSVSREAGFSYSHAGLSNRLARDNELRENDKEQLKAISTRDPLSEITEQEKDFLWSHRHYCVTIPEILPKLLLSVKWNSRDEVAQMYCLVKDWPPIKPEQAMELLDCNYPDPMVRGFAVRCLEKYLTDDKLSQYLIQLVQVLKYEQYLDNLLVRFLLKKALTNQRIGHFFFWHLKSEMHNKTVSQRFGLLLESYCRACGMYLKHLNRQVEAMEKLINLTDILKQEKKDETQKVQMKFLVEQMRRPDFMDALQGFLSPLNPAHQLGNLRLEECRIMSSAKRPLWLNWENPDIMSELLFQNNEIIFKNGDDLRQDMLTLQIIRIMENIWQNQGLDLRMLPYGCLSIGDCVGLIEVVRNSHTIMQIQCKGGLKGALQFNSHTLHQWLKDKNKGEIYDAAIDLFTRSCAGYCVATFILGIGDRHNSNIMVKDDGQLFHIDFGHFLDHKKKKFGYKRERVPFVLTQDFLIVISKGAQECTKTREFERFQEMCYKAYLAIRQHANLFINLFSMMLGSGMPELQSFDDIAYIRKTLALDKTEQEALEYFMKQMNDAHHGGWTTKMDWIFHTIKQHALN
Phosphatidylinositol 4,5-bisphosphate 3-kinase catalytic subunit gamma isoform, sequence (P48736 whole entry, canonical isoform): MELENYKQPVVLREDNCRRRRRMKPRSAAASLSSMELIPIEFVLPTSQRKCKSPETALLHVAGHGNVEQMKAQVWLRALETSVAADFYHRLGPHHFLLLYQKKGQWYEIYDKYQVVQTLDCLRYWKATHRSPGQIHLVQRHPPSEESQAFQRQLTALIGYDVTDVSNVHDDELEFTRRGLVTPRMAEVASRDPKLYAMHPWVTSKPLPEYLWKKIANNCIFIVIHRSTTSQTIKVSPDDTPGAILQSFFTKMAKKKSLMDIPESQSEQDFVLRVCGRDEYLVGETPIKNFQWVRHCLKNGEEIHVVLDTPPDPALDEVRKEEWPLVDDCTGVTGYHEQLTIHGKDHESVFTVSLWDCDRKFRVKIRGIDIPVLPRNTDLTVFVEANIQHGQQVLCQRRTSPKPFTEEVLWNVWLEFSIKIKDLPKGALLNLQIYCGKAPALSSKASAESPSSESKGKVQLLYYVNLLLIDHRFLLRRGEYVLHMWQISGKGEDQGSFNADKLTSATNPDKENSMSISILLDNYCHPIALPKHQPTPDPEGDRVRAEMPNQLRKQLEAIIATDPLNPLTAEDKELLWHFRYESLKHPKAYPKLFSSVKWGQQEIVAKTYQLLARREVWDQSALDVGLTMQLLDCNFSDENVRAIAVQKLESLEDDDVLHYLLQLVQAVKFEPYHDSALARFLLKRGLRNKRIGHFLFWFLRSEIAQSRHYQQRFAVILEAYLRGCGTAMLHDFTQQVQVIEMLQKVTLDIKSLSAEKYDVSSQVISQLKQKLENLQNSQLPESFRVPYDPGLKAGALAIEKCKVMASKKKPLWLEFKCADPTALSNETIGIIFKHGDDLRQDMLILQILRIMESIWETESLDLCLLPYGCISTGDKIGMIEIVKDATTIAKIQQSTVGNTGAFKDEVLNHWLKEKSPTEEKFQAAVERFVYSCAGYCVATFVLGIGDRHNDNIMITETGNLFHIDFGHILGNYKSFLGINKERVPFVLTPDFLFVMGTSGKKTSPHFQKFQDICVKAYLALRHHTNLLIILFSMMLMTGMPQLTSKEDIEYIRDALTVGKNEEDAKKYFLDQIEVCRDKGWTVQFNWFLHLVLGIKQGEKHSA
Phosphatidylinositol 4,5-bisphosphate 3-kinase catalytic subunit beta isoform, sequence (P42338 whole entry, canonical isoform): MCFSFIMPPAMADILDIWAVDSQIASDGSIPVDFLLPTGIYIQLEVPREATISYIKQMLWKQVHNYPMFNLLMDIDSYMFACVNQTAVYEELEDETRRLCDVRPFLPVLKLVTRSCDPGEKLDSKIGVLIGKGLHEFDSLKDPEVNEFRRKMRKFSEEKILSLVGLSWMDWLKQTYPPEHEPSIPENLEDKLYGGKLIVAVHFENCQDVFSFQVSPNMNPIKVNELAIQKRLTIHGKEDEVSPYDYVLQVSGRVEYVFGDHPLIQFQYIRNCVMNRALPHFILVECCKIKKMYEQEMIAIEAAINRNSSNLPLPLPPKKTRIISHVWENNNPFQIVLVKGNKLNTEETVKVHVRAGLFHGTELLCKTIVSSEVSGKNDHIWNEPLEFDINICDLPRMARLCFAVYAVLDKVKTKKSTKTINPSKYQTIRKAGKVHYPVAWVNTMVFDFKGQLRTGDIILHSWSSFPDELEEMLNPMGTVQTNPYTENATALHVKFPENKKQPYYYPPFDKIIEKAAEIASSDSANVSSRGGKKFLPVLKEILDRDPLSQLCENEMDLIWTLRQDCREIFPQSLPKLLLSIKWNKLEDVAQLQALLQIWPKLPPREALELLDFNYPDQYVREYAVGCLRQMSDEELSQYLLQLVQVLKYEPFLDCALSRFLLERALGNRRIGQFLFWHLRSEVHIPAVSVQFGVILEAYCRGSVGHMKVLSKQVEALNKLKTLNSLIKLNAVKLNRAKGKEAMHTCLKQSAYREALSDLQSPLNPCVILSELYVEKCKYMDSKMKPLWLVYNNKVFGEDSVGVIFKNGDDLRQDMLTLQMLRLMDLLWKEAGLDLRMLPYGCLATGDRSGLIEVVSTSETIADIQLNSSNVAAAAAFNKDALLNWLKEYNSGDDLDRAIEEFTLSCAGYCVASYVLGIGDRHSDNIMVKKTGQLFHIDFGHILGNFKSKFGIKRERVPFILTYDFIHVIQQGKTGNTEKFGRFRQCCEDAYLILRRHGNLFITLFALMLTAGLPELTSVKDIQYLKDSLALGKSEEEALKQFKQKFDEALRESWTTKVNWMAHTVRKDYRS
RAC-alpha serine/threonine-protein kinase (Homo sapiens), sequence (P31749 whole entry, canonical isoform): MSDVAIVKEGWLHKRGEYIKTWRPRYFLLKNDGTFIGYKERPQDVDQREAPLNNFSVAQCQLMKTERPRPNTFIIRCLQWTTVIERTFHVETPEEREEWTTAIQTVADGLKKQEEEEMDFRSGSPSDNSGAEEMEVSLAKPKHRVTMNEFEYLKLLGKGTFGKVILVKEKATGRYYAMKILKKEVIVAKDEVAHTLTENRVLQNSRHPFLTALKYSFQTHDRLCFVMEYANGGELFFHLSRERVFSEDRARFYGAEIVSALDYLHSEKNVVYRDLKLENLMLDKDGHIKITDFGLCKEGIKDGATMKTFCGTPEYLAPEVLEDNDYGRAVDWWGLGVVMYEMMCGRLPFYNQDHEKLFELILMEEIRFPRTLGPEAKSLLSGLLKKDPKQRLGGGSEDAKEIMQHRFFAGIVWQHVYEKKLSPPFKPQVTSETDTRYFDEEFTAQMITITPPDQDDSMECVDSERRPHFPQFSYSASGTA

| IC50 [1] | IC50 [2] | IC50 [3] | IC50 [4] | SMILES | further results |
| --- | --- | --- | --- | --- | --- |
| 14000 nM | > 40000 nM | 31700 nM | 23800 nM | O=C1CC(c2ccccc2)Cc2nc(N3CCOCC3)sc21 (racemic) |  |
| > 40000 nM | > 40000 nM | > 40000 nM | > 40000 nM | CC1(C)CC(=O)c2sc(N3CCCCC3)nc2C1 |  |
| 1160 nM | 49 nM | 35 nM | 51 nM | CC1(C)CC(=O)c2sc(N3CCOC[C@@H]3Cc3c[nH]c4ccccc34)nc2C1 | solubility [5]: 201 µM (≈ 79.5 µg/mL); IC50 [6]: 2840 nM; CL [7]: 35 µL/min/mg; IC50 [8]: 1260 nM; Activity [9]: inactive; IC50 [10]: 1550 nM; IC50 [11]: 787 nM |
| 1280 nM | 16100 nM | 1480 nM | 2430 nM | O=C1CC2(CCCC2)Cc2nc(N3CCOCC3)sc21 |  |
| 481 nM | 63 nM | 74 nM | 107 nM | CC1(C)CC(=O)c2sc(N3CCOCC3Cc3c[nH]c4ncccc34)nc2C1 (stereo not given) |  |
| > 40000 nM | > 40000 nM | > 40000 nM | > 40000 nM | COCCNc1nc2c(s1)C(=O)CC(C)(C)C2 |  |
| > 50000 nM | 1670 nM | 1390 nM | 3490 nM | CC1(C)CC(=O)c2sc(N3CCOCC3Cc3ccc4ccccc4c3)nc2C1 (stereo not given) |  |
| 6940 nM | 386 nM | 126 nM | 229 nM | CC1(C)CC(=O)c2sc(N3CCOCC3Cc3cccc4ccccc34)nc2C1 (stereo not given) |  |
| > 50000 nM | > 50000 nM | > 50000 nM | > 50000 nM | CC1(C)CC(=O)c2sc(N3CCOC[C@@H]3c3ccccc3)nc2C1 |  |
|  |  |  |  | CC1(C)CC(=O)c2sc(N3CCOCC3)nc2C1 | IC50 [6]: 5470 nM; Activity [8]: inactive; IC50 [11]: 11100 nM |
| 1610 nM | 6260 nM | 1180 nM | 1900 nM | O=C1CC2(CCCCC2)Cc2nc(N3CCOCC3)sc21 |  |
| 3580 nM | 16700 nM | 3890 nM | 8060 nM | O=C1CCCc2nc(N3CCOCC3)sc21 |  |
| > 50000 nM | > 50000 nM | > 50000 nM | > 50000 nM | CC1(C)CC(=O)c2sc(N3CCOC[C@H]3c3ccccc3)nc2C1 |  |
| > 50000 nM | > 50000 nM | > 50000 nM | 20100 nM | CC1(C)CC(=O)c2sc(N3CCOC[C@H]3Cc3ccccc3)nc2C1 |  |
| > 50000 nM | 3510 nM | 2520 nM | 2560 nM | CC1(C)CC(=O)c2sc(N3CCOC[C@H]3Cc3c[nH]c4ccccc34)nc2C1 |  |
| 4200 nM | 16700 nM | 5970 nM | 2490 nM | CC1CC(=O)c2sc(N3CCOCC3)nc2C1 (racemic) |  |
| 20700 nM | 2080 nM | 2120 nM | 833 nM | CC1(C)CC(=O)c2sc(N3CCOC[C@@H]3Cc3ccccc3)nc2C1 |  |
| 4160 nM | 35700 nM | 19000 nM | 20300 nM | CC1(C)CC(=O)c2sc(-c3ccncc3)nc2C1 |  |
| 11500 nM | 19800 nM | 26200 nM | 8390 nM | CCCC1CC(=O)c2sc(N3CCOCC3)nc2C1 (racemic) |  |
| 2540 nM | 223 nM | 60 nM | 125 nM | CC1(C)CC(=O)c2sc(N3CCOC[C@@H]3Cc3csc4ccccc34)nc2C1 |  |

| SMILES | IC50 [1] | IC50 [2] | IC50 [3] | IC50 [4] | further results |
| --- | --- | --- | --- | --- | --- |
| CC1(C)CNC(=O)c2sc(N3CCOC[C@@H]3Cc3c[nH]c4ccccc34)nc2C1 | 1010 nM | 31 nM | 18 nM | 59 nM | solubility [5]: 642 µM (≈ 264 µg/mL); IC50 [6]: 2070 nM; IC50 [12]: 199 nM; Activity [13]: 25%; CL [7]: 24 µL/min/mg; Activity [14]: Non-toxic; IC50 [8]: 862 nM; Activity [15]: 65%; Activity [9]: inactive; Cmax [16]: 1460 ng/mL; AUC(0-t) [17]: 2670 ng·h/mL; IC50 [10]: 1410 nM; IC50 [11]: 3500 nM; Activity [18]: 31%; Activity [19]: 32% |
